# From patent US5628979A, “Reagent for tumor imaging and therapy” (Antisoma Limited, priority 1991, dated 1997)
# Where two headings read alike, the source gives them in different places. Where no end group is shown, it is not given here.
# Experiments:
# [1] = tested on: tumor associated LDV binding sites; test: Binding to tumor associated LDV binding sites / tumor cells in vivo; transportation and clearance; set-up: species or system nude mice; settings: in words
# Description: (§1) In vivo experiments were performed in nude mice bearing HEp-2 and HT29 tumors obtained by injecting the nude mice subcutaneously in both flanks with from 2 to 5×10^6 HEp-2 and HT29 tumor cells and the tumors allowed to grow for three weeks.
# (§2) In these experiments the nude tumor bearing mice divided into five groups were each injected subcutaneously with the ^125 I-labelled peptide
# (§3) ^125 I-YGGLDVGLDVGGY (SEQ ID NO. 2).
# (§4) (SEQ ID No. 2), and the uptake of labelled peptide measured against time. For this purpose the five groups were killed at intervals of 5 minutes, 30 minutes, 1 hour, 3 hours, and 6 hours after injection. At this time the blood and tumors were separately removed, weighed and counted for radioactivity, as well as samples taken from all major organs. […] At this point peptide uptake was 10.3% id per gram in blood, 4.5% id per gram in HEp-2 tumor and 3.0% id per gram in HT29 tumor.
# VLA-4 = settings: in words; expressed in vitro by tumour cells and resting CD4+ T-cells; see Shimizu et al; cited from earlier work
# activated platelets = settings: Kloczewiak et al, cited from earlier work
# [2] = In vivo uptake of 125I-labelled peptide in blood of tumor-bearing nude mice (Experiment 2); settings: 5 minutes after subcutaneous injection; nude mice bearing HEp-2 and HT29 tumors
# Description: as §1, §2, §3, §4
# HEp-2 tumor = test: In vivo uptake of 125I-labelled peptide in HEp-2 tumor borne by nude mice (Experiment 2); settings: 5 minutes after subcutaneous injection
# Description: as §1, §2, §3, §4
# HT29 tumor = test: In vivo uptake of 125I-labelled peptide in HT29 tumor borne by nude mice (Experiment 2); settings: 5 minutes after subcutaneous injection
# Description: as §1, §2, §3, §4
substance,measurement,setting,value
CS1 sequence of fibronectin: 25-unit oligopeptide having the sequence SEQ ID No. 1 (DELPQLVTLPHPLLHGPEILDVPST),binding to tumor cells in vivo,[1],bind strongly to tumor cells in vivo
same,binding to VLA-4,VLA-4,known to bind to the cell adhesion molecule (CAM) VLA-4
"HHLQLLKQLLDV [synthetic dodecapeptide, analogue of the γ400-411 residue, containing the LDV triplet (Kloczewiak et al)]",IC50,"activated platelets; Biochemistry 1989, read-out: concentration for 50% inhibition of fibrinogen binding to activated platelets",> 500 µM
same,IC50,"activated platelets; as restated, read-out: concentration necessary to obtain 50% inhibition of fibronectin binding to activated platelets",> 500 µM
"^125 I-YGGLDVGLDVGGY: radio-labelled thirteen unit peptide YGGLDVGLDVGGY labelled with 125I (also: 125I radiolabel, position not given here)",peptide uptake in blood,[2],10.3 % id per gram
same,peptide uptake in HEp-2 tumor,HEp-2 tumor,4.5 % id per gram
same,peptide uptake in HT29 tumor,HT29 tumor,3.0 % id per gram
